In the supplement of paper PMC10307832:

Tests used:
Experiment in all cases: relative viability (nuclei count vs DMSO), 5 days (fraction); higher = more cells survive
BGJ398 + Pemetrexed = compound: CCN1CCN(c2ccc(Nc3cc(N(C)C(=O)Nc4c(Cl)c(OC)cc(OC)c4Cl)ncn3)cc2)CC1 [BGJ398] + Nc1nc2[nH]cc(CCc3ccc(C(=O)N[C@@H](CCC(=O)O)C(=O)O)cc3)c2c(=O)[nH]1 [Pemetrexed] (partner 0.2 µM)
Summary of the method: (§1)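 Lung cancer cell lines were seeded in 1536-well plates and dosed by pin tool the next day, with either a single drug or a fixed anchor-drug dose combined with five library-drug doses (not always all listed) spaced in √10 steps. Five days later, one step fixed the cells and stained their nuclei (final 0.05% Triton X-100, 1% formaldehyde, 1 ug/ml Hoechst), and nuclei were counted on 4× images. Relative viability is the nuclei count in treated wells divided by the count in vehicle wells, and each value is the median of duplicate plates.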

BGJ398 + Olaparib = compound: CCN1CCN(c2ccc(Nc3cc(N(C)C(=O)Nc4c(Cl)c(OC)cc(OC)c4Cl)ncn3)cc2)CC1 [BGJ398] + O=C(c1cc(Cc2n[nH]c(=O)c3ccccc23)ccc1F)N1CCN(C(=O)C2CC2)CC1 [Olaparib] (partner 8 µM)
Summary of the method: as §1

[1] = compound: C1=CC2=NC=CN=C2C=C1/C=C/3\C(=O)NC(=O)S3 + C[C@]1(O)C[C@@H](c2nc(-c3ccc4ccc(-c5ccccc5)nc4c3)c3c(N)nccn32)C1 [Linsitinib] (partner 1 µM)
Summary of the method: as §1

BGJ398 + Crizotinib = compound: CCN1CCN(c2ccc(Nc3cc(N(C)C(=O)Nc4c(Cl)c(OC)cc(OC)c4Cl)ncn3)cc2)CC1 [BGJ398] + C[C@@H](Oc1cc(-c2cnn(C3CCNCC3)c2)cnc1N)c1c(Cl)ccc(F)c1Cl [Crizotinib] (partner 1 µM)
Summary of the method: as §1

| Cell Line | relative viability (BGJ398 + Pemetrexed; first compound 0.01 µM) | relative viability (BGJ398 + Pemetrexed; first compound 0.03162 µM) | relative viability (BGJ398 + Pemetrexed; first compound 0.1 µM) | relative viability (BGJ398 + Pemetrexed; first compound 0.3162 µM) | relative viability (BGJ398 + Pemetrexed; first compound 1 µM) | relative viability (BGJ398 + Olaparib; first compound 0.01 µM) | relative viability (BGJ398 + Olaparib; first compound 0.03162 µM) | relative viability (BGJ398 + Olaparib; first compound 0.1 µM) | relative viability (BGJ398 + Olaparib; first compound 0.3162 µM) | relative viability (BGJ398 + Olaparib; first compound 1 µM) | relative viability ([1]; first compound 0.02 µM) | relative viability ([1]; first compound 0.06325 µM) | relative viability ([1]; first compound 0.2 µM) | relative viability ([1]; first compound 0.6325 µM) | relative viability ([1]; first compound 2 µM) | relative viability (BGJ398 + Crizotinib; first compound 0.01 µM) | relative viability (BGJ398 + Crizotinib; first compound 0.03162 µM) | relative viability (BGJ398 + Crizotinib; first compound 0.1 µM) | relative viability (BGJ398 + Crizotinib; first compound 0.3162 µM) | relative viability (BGJ398 + Crizotinib; first compound 1 µM) |
| --- | --- | --- | --- | --- | --- | --- | --- | --- | --- | --- | --- | --- | --- | --- | --- | --- | --- | --- | --- | --- |
| HARA | 0.237 | 0.22 | 0.215 | 0.273 | 0.248 | 0.983 | 0.651 | 0.875 | 0.902 | 0.722 | 0.96 | 0.829 | 1.08 | 0.942 | 0.975 | 0.953 | 1.06 | 1.04 | 1.02 | 1.07 |
| NCI-H838 | 0.227 | 0.243 | 0.217 | 0.237 | 0.23 | 0.731 | 0.754 | 0.749 | 0.741 | 0.667 | 0.955 | 1.03 | 0.958 | 0.913 | 1 | 0.804 | 0.837 | 0.781 | 0.782 | 0.652 |
| NCI-H1755 | 0.438 | 0.44 | 0.428 | 0.443 | 0.427 | 0.813 | 0.906 | 0.904 | 0.855 | 0.912 | 0.927 | 0.995 | 1.02 | 0.978 | 0.979 | 0.907 | 0.888 | 0.884 | 0.868 | 0.84 |
| HCC-78 | 1.02 | 0.885 | 0.88 | 0.91 | 0.896 | 0.785 | 0.838 | 0.967 | 0.78 | 0.823 | 0.488 | 0.517 | 0.54 | 0.497 | 0.403 | 0.379 | 0.313 | 0.394 | 0.334 | 0.348 |
| IA-LM |  |  |  |  |  | 0.772 | 0.841 | 0.917 | 0.742 | 0.79 | 0.516 | 0.729 | 0.607 | 0.606 | 0.694 | 0.91 | 0.996 | 0.657 | 0.908 | 0.793 |
| NCI-H322M | 0.662 | 0.635 | 0.637 | 0.603 | 0.631 | 0.801 | 0.73 | 0.761 | 0.758 | 0.815 | 1.06 | 0.85 | 0.982 | 0.896 | 0.918 | 1.04 | 0.77 | 0.956 | 0.961 | 1.1 |
| NCI-H1793 | 0.942 | 0.526 | 0.809 | 0.569 | 0.454 | 0.828 | 0.721 | 1.02 | 0.824 | 0.739 | 0.785 | 0.99 | 0.747 | 0.919 | 0.679 |  |  |  |  |  |
| ChaGo-K-1 | 0.261 | 0.249 | 0.242 | 0.269 | 0.281 | 0.42 | 0.423 | 0.437 | 0.387 | 0.434 |  |  |  |  |  | 1.09 | 1.18 | 1.21 | 0.991 | 1.05 |
| NCI-H522 | 0.987 | 0.896 | 0.876 | 0.995 | 0.856 | 0.714 | 0.684 | 0.607 | 0.651 | 0.621 |  |  |  |  |  |  |  |  |  |  |
| NCI-H1299 |  |  |  |  |  | 0.961 | 0.971 | 0.977 | 1 | 0.999 | 0.841 | 1.1 | 0.985 | 0.919 | 0.927 | 0.94 | 0.864 | 0.951 | 0.969 | 0.97 |
| NCI-H1650 | 0.391 | 0.361 | 0.354 | 0.295 | 0.319 | 0.81 | 0.838 | 0.786 | 0.826 | 0.811 |  |  |  |  |  | 0.955 | 1.01 | 0.862 | 0.879 | 0.937 |
| NCI-H1648 | 0.85 |  | 0.821 | 0.896 | 0.651 | 0.658 |  | 1.18 | 0.85 | 0.487 |  |  |  |  |  |  |  |  |  |  |
| NCI-H727 |  |  |  |  |  | 0.707 | 0.629 | 0.717 | 0.653 | 0.641 | 0.341 | 0.223 | 0.33 | 0.403 | 0.252 | 0.809 | 0.853 | 0.795 | 0.857 | 0.711 |
| NCI-H2342 | 0.742 | 0.775 | 0.801 | 0.773 | 0.755 | 0.517 | 0.46 | 0.541 | 0.482 | 0.444 |  |  |  |  |  |  |  |  |  |  |
| SW 900 | 0.471 | 0.43 | 0.469 | 0.348 | 0.256 | 0.867 | 0.822 | 0.851 | 0.679 | 0.761 |  |  |  |  |  |  |  |  |  |  |
| NCI-H1395 | 0.827 | 0.82 | 0.77 | 0.559 | 0.524 | 0.441 | 0.426 | 0.434 | 0.428 | 0.409 | 1.37 | 1.28 | 1.25 | 0.939 | 1.14 |  |  |  |  |  |
| A549 |  |  |  |  |  | 0.341 | 0.436 | 0.6 | 0.231 | 0.231 | 0.648 | 0.682 | 0.627 | 0.546 | 0.6 | 0.73 | 0.811 | 0.758 | 0.843 | 0.783 |
| NCI-H2170 | 0.273 | 0.254 | 0.283 | 0.276 | 0.247 | 0.605 | 0.584 | 0.633 | 0.57 | 0.553 |  |  |  |  |  | 1.09 | 1.22 | 1.29 | 1.25 | 1.31 |
| NCI-H1563 | 0.749 | 0.968 | 0.754 | 0.58 | 0.433 |  |  |  |  |  | 1.19 | 1.23 | 1.12 | 1.1 | 1.3 | 0.875 | 0.812 | 0.846 | 0.794 | 0.728 |
| ABC-1 |  |  |  |  |  | 0.864 | 0.934 | 0.887 |  | 0.616 | 0.76 | 0.761 | 0.758 | 1.01 | 0.804 | 1.05 | 1.36 | 1.19 | 0.925 | 1.42 |
